Read-outs that look alike come from different tables or passages of the source.
Experiments:
MDA-MB-231 (breast) = assay: Cell growth inhibition assay (SRB), MDA-MB-231; format: cell-based, human; conditions: Homo sapiens, SRB method, 96 hours incubation
Method: (§1) OVCAR-3, MCF-7, PC3, HepG2, A549, HT-29 and MKN-45 were grown in RPMI1640 medium (Invitrogen, Carlsbad, Calif.) supplemented with 10% fetal bovine serum (‘FBS’), 1 mM sodium pyruvate, 10 mM HEPES and 100 U/ml penicillin and […] streptomycin (‘P/S’). MDA-MB-231, HCT116, UMRC2, Caki-1, PANC-1 and HEK293 cells were maintained in Dulbecco's modified Eagle's medium (‘DMEM’, Invitrogen) supplemented with 10% FBS, P/S, 10 mM HEPES and 2 mM L-glutamine. HUVEC was maintained in M199 supplemented with basic fibroblast growth factor (‘bFGF’) […] and FBS 20%. All cells were incubated at 37° C. under humidified 5% CO2.
(§2) The growth inhibition of the substituted quinoxalin-piperazine compounds against a variety of human tumor cells was evaluated. The relative importance of particular substituent groups on the compounds was also studied. The substituted piperazine derivative compounds, prepared as described above, were tested, along with DMSO as a control.
(§3) The growth inhibition assay of various compounds against human tumor cell lines was performed using the Sulforhodamine B (‘SRB’) method (Skehan et al., J. National Cancer Institute, 1990, 82, 1107-1112). […] Triplicate wells were used for each treatment. The cells were incubated with the various compounds for 96 hours at 37° C. in a humidified 5% CO2 atmosphere. After 96-hour incubation, cells were fixed with 10% trichloroacetic acid (‘TCA’), incubated for 1 hour at 4° C., and washed 3 times with tap water. Subsequently cells were stained with 0.4% sulforhodamine B in 1% acetic acid for 30 minutes, washed 4 times with 1% acetic acid, and air-dried again. After 5 minutes agitation in 10 mM Tris solution, the absorbance of each well was measured at 530 nm using Benchmark Plus Microplate reader (Bio-Rad Laboratories, Hercules, Calif.).
(§4) To translate the OD530 values into the number of live cells in each well, the OD530 values were compared to those on standard OD530-versus-cell number curves generated for each cell line. The percent survival was calculated using the formula: % Survival=live cell number[test]/live cell number[control]×100
(§5) The IC50 values were calculated by non-linear regression analysis.

UMRC2 (kidney) = assay: Cell growth inhibition assay (SRB), UMRC2; format: cell-based, human; conditions: Homo sapiens, SRB method, 96 hours incubation
Method: as §1, §2, §3, §4, §5

PANC-1 (pancreas) = assay: Cell growth inhibition assay (SRB), PANC-1; format: cell-based, human; conditions: Homo sapiens, SRB method, 96 hours incubation
Method: as §1, §2, §3, §4, §5

MKN-45 (stomach) = assay: Cell growth inhibition assay (SRB), MKN-45; format: cell-based; conditions: Homo sapiens, SRB method, 96 hours incubation
Method: as §1, §2, §3, §4, §5

HepG2 (liver) = assay: Cell growth inhibition assay (SRB), HepG2; format: cell-based; conditions: Homo sapiens, SRB method, 96 hours incubation
Method: as §1, §2, §3, §4, §5

HT-29 (colon) = assay: Cell growth inhibition assay (SRB), HT-29; format: cell-based; conditions: Homo sapiens, SRB method, 96 hours incubation
Method: as §1, §2, §3, §4, §5

HCT116 (colon) = assay: Cell growth inhibition assay (SRB), HCT116; format: cell-based; conditions: Homo sapiens, HCT-116, SRB method, 96 hours incubation
Method: as §1, §2, §3, §4, §5

PC3 (prostate) = assay: Cell growth inhibition assay (SRB), PC3; format: cell-based; conditions: Homo sapiens, SRB method, 96 hours incubation
Method: as §1, §2, §3, §4, §5

OVCAR-3 (ovary) = assay: Cell growth inhibition assay (SRB), OVCAR-3; format: cell-based; conditions: Homo sapiens, SRB method, 96 hours incubation
Method: as §1, §2, §3, §4, §5

[1] = system: MCF-7 (breast, hormone-dependent); assay: Cell growth inhibition assay (SRB), MCF-7; format: cell-based; conditions: Homo sapiens, MCF7, SRB method, 96 hours incubation
Method: as §1, §2, §3, §4, §5

Caki-1 (kidney) = assay: Cell growth inhibition assay (SRB), Caki-1; format: cell-based; conditions: Homo sapiens, SRB method, 96 hours incubation
Method: as §1, §2, §3, §4, §5

A549 (lung) = assay: Cell growth inhibition assay (SRB), A549; format: cell-based; conditions: Homo sapiens, SRB method, 96 hours incubation
Method: as §1, §2, §3, §4, §5

[2] = MDA-MB-231, read-out: Inhibition of cell growth (IC50, μM) by quinoxaline-piperazine compounds against human cancer cell lines: MDA-MB-231
[3] = UMRC2, read-out: Inhibition of cell growth (IC50, μM) by quinoxaline-piperazine compounds against human cancer cell lines: UMRC2
[4] = PANC-1, read-out: Inhibition of cell growth (IC50, μM) by quinoxaline-piperazine compounds against human cancer cell lines: PANC-1
[5] = MKN-45, MKN45, read-out: Inhibition of cell growth (IC50, μM) by quinoxaline-piperazine compounds against human cancer cell lines: MKN45
[6] = HepG2, read-out: Inhibition of cell growth (IC50, μM) by quinoxaline-piperazine compounds against human cancer cell lines: HepG2
[7] = HT-29, HT29, read-out: Inhibition of cell growth (IC50, μM) by quinoxaline-piperazine compounds against human cancer cell lines: HT29
[8] = HCT116, read-out: Inhibition of cell growth (IC50, μM) by quinoxaline-piperazine compounds against human cancer cell lines: HCT116
[9] = PC-3, read-out: Inhibition of cell growth (IC50, μM) by quinoxaline-piperazine compounds against human cancer cell lines: PC-3
[10] = OVCAR-3, OVCAR3, read-out: Inhibition of cell growth (IC50, μM) by quinoxaline-piperazine compounds against human cancer cell lines: OVCAR3
[11] = read-out: Inhibition of cell growth (IC50, μM) by quinoxaline-piperazine compounds against human cancer cell lines: MCF7
[12] = Caki-1, read-out: Inhibition of cell growth (IC50, μM) by quinoxaline-piperazine compounds against human cancer cell lines: Caki-1
[13] = A549, read-out: Inhibition of cell growth (IC50, μM) by quinoxaline-piperazine compounds against human cancer cell lines: A549
[14] = MDA-MB-231 (breast), read-out: IC50, MDA-MB-231
[15] = UMRC2 (kidney), read-out: IC50, UMRC2
[16] = PANC-1 (pancreas), read-out: IC50, PANC-1
[17] = MKN-45 (stomach), read-out: IC50, MKN-45
[18] = HepG2 (liver), read-out: IC50, HepG2
[19] = HT-29 (colon), read-out: IC50, HT-29
[20] = HCT116 (colon), read-out: IC50, HCT116
[21] = PC3 (prostate), read-out: IC50, PC3
[22] = OVCAR-3 (ovary), read-out: IC50, OVCAR-3
[23] = MCF-7 (breast, hormone-dependent), read-out: IC50, MCF-7
[24] = Caki-1 (kidney), read-out: IC50, Caki-1
[25] = A549 (lung), read-out: IC50, A549

COc1cc(OC)cc(N2CCN(C(=O)Nc3nc4cc(F)ccc4nc3OC)CC2)c1 [Compound 5, 1-[(6-Fluoro-2-methoxyquinoxalin-3-yl)aminocarbonyl]-4-(3,5-dimethoxyphenyl)piperazine]
IC50 (MDA-MB-231 (breast); [2]): 0.012 µM
IC50 (UMRC2 (kidney); [3]): 0.013 µM
IC50 (PANC-1 (pancreas); [4]): 0.021 µM
IC50 (MKN-45 (stomach); [5]): 0.02 µM
IC50 (HepG2 (liver); [6]): 0.019 µM
IC50 (HT-29 (colon); [7]): 0.021 µM
IC50 (HCT116 (colon); [8]): 0.019 µM
IC50 (PC3 (prostate); [9]): 0.021 µM
IC50 (OVCAR-3 (ovary); [10]): 0.012 µM
IC50 [1, 11]: 0.025 µM
IC50 (Caki-1 (kidney); [12]): 0.011 µM
IC50 (A549 (lung); [13]): 0.021 µM

COc1cc(OC)cc(N2CCN(C(=O)Nc3nc4cc(Cl)ccc4nc3OC)CC2)c1 [Compound 26, 1-[(6-Chloro-2-methoxyquinoxalin-3-yl)aminocarbonyl]-4-(3,5-dimethoxyphenyl)piperazine]
IC50 (MDA-MB-231 (breast); [2]): 0.05 µM
IC50 (UMRC2 (kidney); [3]): 0.065 µM
IC50 (PANC-1 (pancreas); [4]): 0.098 µM
IC50 (MKN-45 (stomach); [5]): 0.064 µM
IC50 (HepG2 (liver); [6]): 0.063 µM
IC50 (HT-29 (colon); [7]): 0.079 µM
IC50 (HCT116 (colon); [8]): 0.068 µM
IC50 (PC3 (prostate); [9]): 0.076 µM
IC50 (OVCAR-3 (ovary); [10]): 0.042 µM
IC50 [1, 11]: 0.076 µM
IC50 (Caki-1 (kidney); [12]): 0.053 µM
IC50 (A549 (lung); [13]): 0.073 µM

COc1cc(OC)cc(N2CCN(C(=O)Nc3nc4cc(C)ccc4nc3OC)CC2)c1 [Compound 47, 1-[(2-Methoxy-6-methylquinoxalin-3-yl)aminocarbonyl]-4-(3,5-dimethoxyphenyl)piperazine]
IC50 (MDA-MB-231 (breast); [2]): 0.032 µM
IC50 (UMRC2 (kidney); [3]): 0.039 µM
IC50 (PANC-1 (pancreas); [4]): 0.07 µM
IC50 (MKN-45 (stomach); [5]): 0.04 µM
IC50 (HepG2 (liver); [6]): 0.045 µM
IC50 (HT-29 (colon); [7]): 0.048 µM
IC50 (HCT116 (colon); [8]): 0.047 µM
IC50 (PC3 (prostate); [9]): 0.063 µM
IC50 (OVCAR-3 (ovary); [10]): 0.023 µM
IC50 [1, 11]: 0.063 µM
IC50 (Caki-1 (kidney); [12]): 0.029 µM
IC50 (A549 (lung); [13]): 0.055 µM

COc1cc(OC)cc(N2CCN(C(=O)Nc3nc4ccc(Cl)cc4nc3OC)CC2)c1 [Compound 110, 1-[(6-Chloro-3-methoxyquinoxalin-2-yl)aminocarbonyl]-4-(3,5-dimethoxyphenyl)piperazine]
IC50 (MDA-MB-231 (breast); [14]): 0.18 µM
IC50 (UMRC2 (kidney); [15]): 0.21 µM
IC50 (PANC-1 (pancreas); [16]): 0.28 µM
IC50 (MKN-45 (stomach); [17]): 0.2 µM
IC50 (HepG2 (liver); [18]): 0.21 µM
IC50 (HT-29 (colon); [19]): 0.25 µM
IC50 (HCT116 (colon); [20]): 0.23 µM
IC50 (PC3 (prostate); [21]): 0.27 µM
IC50 (OVCAR-3 (ovary); [22]): 0.13 µM
IC50 [1, 23]: 0.21 µM
IC50 (Caki-1 (kidney); [24]): 0.18 µM
IC50 (A549 (lung); [25]): 0.24 µM

COc1nc2cc(Cl)ccc2nc1NC(=O)N1CCN(c2cccc(Cl)c2)CC1 [Compound 120, 1-[(6-Chloro-3-methoxyquinoxalin-2-yl)aminocarbonyl]-4-(3-chlorophenyl)piperazine]
IC50 (MDA-MB-231 (breast); [14]): 0.17 µM
IC50 (UMRC2 (kidney); [15]): 0.17 µM
IC50 (PANC-1 (pancreas); [16]): 0.24 µM
IC50 (HCT116 (colon); [20]): 0.48 µM
IC50 (OVCAR-3 (ovary); [22]): 0.36 µM
IC50 [1, 23]: 0.6 µM
IC50 (Caki-1 (kidney); [24]): 0.4 µM
IC50 (A549 (lung); [25]): 0.75 µM

COc1cc(OC)cc(N2CCN(C(=O)Nc3nc4ccc(C)cc4nc3OC)CC2)c1 [Compound 131, 1-[(3-Methoxy-6-methylquinoxalin-2-yl)aminocarbonyl]-4-(3,5-dimethoxyphenyl)piperazine]
IC50 (MDA-MB-231 (breast); [14]): 0.16 µM
IC50 (UMRC2 (kidney); [15]): 0.23 µM
IC50 (PANC-1 (pancreas); [16]): 0.36 µM
IC50 (MKN-45 (stomach); [17]): 0.22 µM
IC50 (HepG2 (liver); [18]): 0.23 µM
IC50 (HT-29 (colon); [19]): 0.34 µM
IC50 (HCT116 (colon); [20]): 0.25 µM
IC50 (PC3 (prostate); [21]): 0.35 µM
IC50 (OVCAR-3 (ovary); [22]): 0.14 µM
IC50 [1, 23]: 0.24 µM
IC50 (Caki-1 (kidney); [24]): 0.19 µM
IC50 (A549 (lung); [25]): 0.24 µM

From patent US8598173B2, “1-[(6,7-substituted alkoxyquinoxalinyl)aminocarbonyl]-4-(hetero)arylpiperazine derivatives for treating tumors” (Korea Research Institute of Chemical Technology, priority 2004, dated 2013)
